Measurements published in patent publication US20040087559A1, “Methods for prevention and treatment of cancer” (priority 1999, published 2004).
Entries after “also recorded” stand apart in the source; their conditions may differ. Where two headings read alike, the source gives them in different places.

Tests used:
[1] = test system: normal human keratinocytes transfected with 1α-OHase cDNA; assay: [3H]thymidine incorporation of human keratinocytes transfected with 1α-OHase cDNA; type: cell-based
Description: FIG. 6 depicts a graph showing the effect of 25(OH)D3 concentration on the proliferative activity of normal human keratinocytes transfected with 1α-OHase cDNA. Cultured human keratinocytes transfected with a vector containing the 1α-OHase cDNA as described were incubated with 25(OH)D3 at different concentrations (1 nM, 10 nM, 100 nM) for 18 hours. [^3H]thymidine incorporation was measured as described. ●-: [^3H]thymidine incorporation of cells not transfected (“Control”); ∘-∘: [^3H]thymidine incorporation of cells transfected with vector containing 1α-OHase cDNA (“1α-OHase transfection”).
(F) Keratinocyte transfection. Keratinocytes were maintained in MCDB-153 medium. Cells in 24-well dishes at 50%-60% confluence were transfected with […] of 1α-OHase cDNA which had been subcloned into pCR3.1 vector (INVITROGEN). Empty vector was used as a control. For each transfection, 1.0 μg was diluted in 100 μl of medium containing 6-8 μl Plus Reagent. This mixture was incubated for 15 minutes at room temperature. […] [^3H]thymidine was added to the cultures and [^3H]thymidine incorporation into the DNA (interpreted as a measure of the DNA synthetic activity, i.e. proliferation of the cells) was measured as previously described (Chen, T. C., et al., J Nutr. Biochem. 4:49-57 (1993)). […]

human bone cells = human bone cells (extra-renal site); cited from earlier work
[2] = test system: HEP 62 hepatoma cell line; conditions: cited from earlier work
[3] = test system: human T-lymphotrophic virus-transformed lymphocytes; conditions: cited from earlier work
[4] = test system: renal proximal tubular cells; conditions: primary cultures of renal proximal tubular cells; cited from earlier work
[5] = test system: human prostate cancer cells; conditions: cited from earlier work
1α-OHase [6] = target: T1, 1α-OHase (Homo sapiens, UniProt O15528); conditions: NP96-5; clotrimazole 20 μM; 25(OH)D3 50 nM, 2 h 37° C.
T1 sequence (O15528 1-508): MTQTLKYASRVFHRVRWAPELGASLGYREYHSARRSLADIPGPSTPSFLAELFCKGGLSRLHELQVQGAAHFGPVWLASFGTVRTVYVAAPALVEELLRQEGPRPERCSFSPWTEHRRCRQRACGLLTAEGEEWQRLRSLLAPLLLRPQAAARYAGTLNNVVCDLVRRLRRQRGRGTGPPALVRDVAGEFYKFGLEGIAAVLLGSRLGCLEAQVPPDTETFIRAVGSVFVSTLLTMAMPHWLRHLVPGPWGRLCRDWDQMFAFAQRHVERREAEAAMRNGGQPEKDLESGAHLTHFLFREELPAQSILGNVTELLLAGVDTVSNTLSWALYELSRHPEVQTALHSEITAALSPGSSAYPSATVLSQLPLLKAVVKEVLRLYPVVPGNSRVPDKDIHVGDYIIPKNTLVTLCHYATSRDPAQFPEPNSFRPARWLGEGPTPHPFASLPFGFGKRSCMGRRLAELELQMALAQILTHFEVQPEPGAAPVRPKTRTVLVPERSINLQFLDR
Description: (§1) Primary cultures of human prostatic epithelial cells were established and characterized as described by Lokeshwar et al., Cancer Res. 53:4493-4498 (1993). Prostatic epithelial cells cultured in a serum-free defined medium (Mammary Epithelial Growth Medium (MEGM), Clontech, San Diego, Calif.) express luminal epithelium specific cytokeratins (cytokeratins 8 and 18) as detected immunohistochemically using an anti-cytokeratin antibody, CAM 5.2 (Becton-Dickinson, Mountain View, Calif.). The serum-free medium contains MCDF170 supplemented with Epidermal Growth Factor, 25 ng/ml, hydrocortisone, 0.5 μg/ml, ethanolamine, 1×10^−4, insulin, 5 μg/ml, transferrin, 5 μg/ml, and whole bovine pituitary extract, 70 μg/ml.
(§2) Prostatic cells used were at their first passage in vitro and were cultured in the serum-free RPMI medium during incubation with vitamin D metabolites. […] Histological examination of adjacent tissue sections taken from specimens used for cultures confirmed their identity as normal or BPH cultures.

1α-OHase [7] = target: T1, 1α-OHase; conditions: normal human prostate cells; clotrimazole 20 μM; 25(OH)D3 50 nM, [3H]-25(OH)D3, DPPD 10 μM, 2 h 37° C. (FIG. 3)
Description: (§3) In addition, 1α-OHase activity was determined by using a radioactive metabolite, [^3H]-25(OH)D, as substrate.
Second passage of normal human prostate cells incubated with nonradioactive 25(OH)D3 (50 nM), [^3H]-25(OH)D3 (0.91 μCi/nmol) and 1,2-dianilinoethane (DPPD) (10 μM) at 37° C. for two hours in the absence of clotrimazole (20 μM) is shown in FIG. 2.
Second passage of normal human prostate cells were also incubated with nonradioactive 25(OH)D3 (50 nM), [^3H]-25(OH)D3 (0.91 μCi/nmol) and DPPD (10 μM) at 37° C. for two hours in the presence of clotrimazole (20 μM) in the presence of the cytochrome P450 inhibitor (clotrimazole).

1α-OHase [8] = target: T1, 1α-OHase; conditions: DU 145
Description: (§4) (A) Cell Lines. DU 145, PC-3, and LNCaP cell lines were obtained from the American Type Culture Collection, Rockville, Md. All cell lines were tested and found to be free of Mycoplasma contamination.
(§5) (B) Culture Conditions. Prostate cancer cell lines were cultured following several passages in vitro. Cells were routinely cultured in complete medium (RPMI 1640 medium supplemented with fetal bovine serum (10%., HyClone Labs, Logan Utah) and gentamicin (10 μg/ml, Life Technologies, Inc., Gaithersburg, Md.)). Cells were seeded in 35 mm culture dishes (Corning-Costar, Cambridge, Mass.) at 1×10^5 cells/dish in complete medium. Medium was changed to a serum-free medium (RPMI 1640 containing insulin (10 μg/ml), transferrin ( 10 μg/ml) and selenous acid (1 ng/ml)) 24 hours before adding 25(OH)D3.

1α-OHase [9] = target: T1, 1α-OHase; type: cell-based; set-up: two primary cultures of cells, NP96-5 and BPH96-11, derived from noncancerous human prostates; endogenous in cells; host or cells: primary human prostatic epithelial cultures NP96-5 (normal prostate) and BPH96-11 (BPH); conditions: Human keratinocytes; clotrimazole 20 μM; 25(OH)D3 50 nM, 2 h 37° C.
1α-OHase [10] = target: T1, 1α-OHase; conditions: BPH96-11; clotrimazole 20 μM; 25(OH)D3 50 nM, 2 h 37° C.
Description: as §1, §2

1α-OHase [11] = target: T1, 1α-OHase; conditions: BPH cultures; clotrimazole 20 μM; 25(OH)D3 50 nM, [3H]-25(OH)D3, DPPD 10 μM, 2 h 37° C. (FIG. 5)
Description: as §3
Second passage of prostate cells derived from BPH cultures were incubated with nonradioactive 25(OH)D3 (50 nM), [^3H]-25(OH)D3 (0.91 μCi/nmol) and DPPD (10 μM) at 37° C. for two hours in the absence of clotrimazole (20 μM).

1α-OHase [12] = target: T1, 1α-OHase; conditions: PC-3
Description: as §4, §5

1α-OHase [13] = target: T1, 1α-OHase; conditions: LNCaP; clotrimazole 20 μM; 25(OH)D3 50 nM, 2 h 37° C.
Description: as §4, §5

[14] = clotrimazole 20 μM, 25(OH)D3 50 nM, 2 h 37° C.

Q: Which results are given for `C=C1CC[C@H](O)C/C1=C/C=C1\CCC[C@]2(C)[C@@H]([C@H](C)CCCC(C)(C)O)CC[C@@H]12` [25(OH)D, 25-hydroxyvitamin D]?
A: proliferative activity of transfected vs non-transfected control keratinocytes ([1]; 25(OH)D 10^−9 to 10^−7M, 18 hours (FIG. 6)): more marked decrease in proliferative activity; reduction in the proliferative activity ([3H]thymidine incorporation) ([1]; 25(OH)D at 10^−7 M, 18 hours, cells transfected with 1α-OHase gene compared to untransfected keratinocytes, p<0.01): 53.7%

Q: For `C=C1/C(=C\C=C2/CCC[C@]3(C)[C@@H]([C@H](C)CCCC(C)(C)O)CC[C@@H]23)C[C@@H](O)C[C@@H]1O` [1,25(OH)2D, 1,25-dihydroxyvitamin D], which “1,25(OH)2D produced” value (human bone cells) is on record?
A: 0.068 pmol/mg protein/hr

Q: What about the “1,25(OH)2D produced” value [2] of the same compound?
A: 2.3 pmol/mg protein/hr

Q: And the “1,25(OH)2D produced” value [3]?
A: 1.6 pmol/mg protein/hr

Q: What about the 1α-OHase enzyme activity [4] of the same compound?
A: 5.3-5.6 pmol/hr/mg protein

Q: And the “Level of 1,25(OH)2D that can significantly inhibit invasiveness” value ([5]; artificial basement membrane composed of human amnions)?
A: ≥ 10^−11 M

Q: And the “effect on invasiveness of DU 145 cells” value ([5]; physiological levels of 1,25(OH)2D, DU 145, correlated with decrease in secreted type IV collagenase (MMP-2 and MMP-9))?
A: significantly inhibit the invasiveness

Q: With `Clc1ccccc1C(c1ccccc1)(c1ccccc1)n1ccnc1` [clotrimazole] as the compound, how does the “1,25(OH)2D Produced, P-450 Inhibitor Present” value (1α-OHase [6]) read?
A: completely inhibited; also recorded: undetectable

Q: And the “1,25(OH)2D synthesis in the presence of clotrimazole (HPLC)” value (1α-OHase [7])?
A: undetectable

Q: And the “inhibition of 1,25(OH)2D production” value (1α-OHase [8]; clotrimazole)?
A: 100%

Q: And the “1,25(OH)2D Produced, P-450 Inhibitor Present” value (1α-OHase [8]; [14])?
A: completely inhibited; also recorded: undetectable

Q: And the “1,25(OH)2D Produced, P-450 Inhibitor Present” value (1α-OHase [9])?
A: completely inhibited; also recorded: undetectable

Q: What about the “1,25(OH)2D Produced, P-450 Inhibitor Present” value (1α-OHase [10]) of the same compound?
A: completely inhibited; also recorded: undetectable

Q: And the “1,25(OH)2D metabolite level in the presence of clotrimazole (tritium activity, HPLC)” value (1α-OHase [11])?
A: less than 200 cpm

Q: And the “inhibition of 1,25(OH)2D production” value (1α-OHase [12]; clotrimazole)?
A: 100%

Q: What about the “1,25(OH)2D Produced, P-450 Inhibitor Present” value (1α-OHase [12]; [14]) of the same compound?
A: completely inhibited; also recorded: undetectable

Q: What about the “1,25(OH)2D Produced, P-450 Inhibitor Present” value (1α-OHase [13]) of the same compound?
A: undetectable
